Assay results reported in US20230365626A1, “Alloferon Peptide and Method Using the Same” (Industry Academy Cooperation Foundation of Sejong University, priority 2020, published 2023).
Square brackets hold non-standard residues; d marks the D form. Ends that are not written are not given here. Peptide text beside a SMILES is read from it.

Legend:
[1] = system: Huntington protein aggregates (Htt aggregates); assay: Mutant Huntington protein aggregates in transfected 293T cells; format: cell-based
Procedure: (§1) In addition, in this study, H4 cell line (GL-H4) and 293T cell line in which the GFP-LC3 plasmid was permanently infected were used. As a cell culture medium, 10% fetal bovine serum (Hyclone, USA) and a mixture solution of antibiotics and antifungal agents (WellGene, South Korea) were added to Minimum Essential Medium (MEM, WellGene) and incubated in a cell incubator in which the conditions of 37° C. and 5% CO2 were maintained.
(§2) In the pre-preparation process, 10-12 days after cell culture, the culture medium of the cerebral cortex nerve cells was changed to a minimum essential medium (MEM, Gibco, USA) without adding serum, and then was treated with N,N,N′,N′-tetrakis(2-pyridylmethyl)ethylene-diamine (TPEN, 2 μM, Sigma, USA), which is a zinc chelator, 50 μM chloroquine (CQ), 100 nM bafilomycin A-1 (Baf-A1), 500 μM methyl-beta-cyclodextrin (MβCD), and 2 μM chloropromazine (CP). Here, the MβCD is a caveolin-mediated endocytosis inhibitor, and CP is a clathrin-mediated endocytosis inhibitor. In addition, in the cell line experiments, the medium was changed to MEM according to the purpose of the experiments and was then treated with 40 μM chloroquine (CQ) and 100 nM bafilomycin A-1 (Baf-A1). During the pre-preparation process, the medium was treated with alloferon D-form peptides (0.2, 2, or 20 μM), free zinc (25 μM), TPEN (1 μM), and the like separately or together according to the purpose of each experiment.
Subsequently, the present inventors investigated whether alloferon may dissolve Huntington protein aggregates (Htt aggregates) generated after the transient transfection of mutant Huntington protein (mt-Htt) into 293T cell lines. To this end, GFP-tagged Huntington Q74 (GFP-mHttQ74) DNA was transiently transfected into 293T cell lines using Lipofectamine2000. For cell observation, GFP signals were analyzed through a fluorescence microscope, and ImageJ was used for size and number analysis of GFP-positive aggregates (FIG. 8A). GFP-mHttQ74 DNA was provided by Dr. David C. Rubinsztein of the University of Cambridge, England (Park et al., Neurobiol. Dis. 42: 242-251, 2011). […]

[2] = system: β-amyloid aggregates (Aβ aggregates); assay: β-amyloid 1-42 protein aggregates in transfected 293T cells; format: cell-based
Procedure: as §1, §2
Subsequently, the present inventors investigated whether alloferon may dissolve the β-amyloid aggregates (Aβ aggregates) generated after the transient transfection of β-amyloid 1-42 (Aβ1-42) into 293T cell lines. To this end, EGFP-tagged 1-42Aβ (pEGFP-C1-Abeta 1-42) DNA was transiently transfected into 293T cell lines using Lipofectamine2000. For cell observation, GFP signals were analyzed through a fluorescence microscope, and ImageJ was used for size and number analysis of GFP-positive aggregates. pEGFP-C1-Abeta 1-42 DNA was purchased from Addgene. Western blot analysis was performed in the same manner as in Example 5, except that anti-6E10-antibodies (Biolegend, USA) were used as the antibodies (FIG. 7).

cortical nerve cells [3] = assay: Mechanism of action: receptor-mediated endocytosis, p62/LC3 western blot with Baf-A1; format: cell-based, ICR mouse; details: inhibitor administered alone (500 μM MβCD or 2 μM CP) with Baf-A1 + 20 μM peptide (FIG. 9B)
Procedure: as §2
Since the protein cannot pass through the cell membrane, the present inventors thought that the alloferon D-form peptides would be introduced through an endocytosis process. Thus, the present inventors investigated whether the alloferon D-form peptides act through a receptor-mediated endocytosis process. […]

H4 cell line (GL-H4) = assay: LC3-GFP puncta, autophagic flux blocked by chloroquine (fluorescence microscopy); format: cell-based; details: 50 μM CQ alone
Procedure: In addition, in this study, H4 cell line (GL-H4) and 293T cell line in which the GFP-LC3 plasmid was permanently infected were used. As a cell culture medium, 10% fetal bovine serum (Hyclone, USA) and a mixture solution of antibiotics and antifungal agents ([…], South Korea) were added to Minimum Essential Medium ([…]) and incubated in a cell incubator in which the conditions of 37° C. and 5% CO2 were maintained. […] Here, the MβCD is a caveolin-mediated endocytosis inhibitor, and CP is a clathrin-mediated endocytosis inhibitor. In addition, in the cell line experiments, the medium was changed to MEM according to the purpose of the experiments and was then treated with 40 μM chloroquine (CQ) and 100 nM bafilomycin A-1 (Baf-A1). During the pre-preparation process, the medium was treated with alloferon D-form peptides (0.2, 2, or 20 μM), free zinc (25 μM), TPEN (1 μM), and the like separately or together according to the purpose of each experiment. […] Protein quantification was performed using BCA protein assay kit (Pierce Biotechnology, USA). Then, 5× sample buffer (300 mM Tris, pH 6.8, 10% SDS, 50% glycerol, 0.1% BPB, 2.5% mercaptoethanol, and 100 mM DTT) was mixed with a quantified sample and denatured at 95° C. for 5 minutes to prepare the sample. […]

cortical nerve cells [4] = assay: Lysotracker staining (lysosomal pH); format: cell-based, ICR mouse
Source text: The cerebral cortex nerve cells of the mice were obtained by extracting the cerebrum from ICR mouse embryos of 13-14 day gestation. 6-7 hemispheres per culture dish were inoculated on 24-well culture dishes or 6-well culture dishes (SPL Life Science, South Korea) coated with 0.01% poly-D-lysine (Sigma, USA) prepared in advance. […]
Since it was confirmed through FIG. 2 that alloferon may promote the autophagic flux, whether the alloferon D-form peptides are involved in pH change in the lysosome was confirmed through lysotracker staining. […] It means that the stronger the fluorescence intensity, the lower the pH, and the weaker the fluorescence intensity, the higher the pH. It was confirmed that the pH in the lysosome was lowered by only the treatment with the alloferon D-form peptides compared to the control (FIG. 3A), and when treatment with 50 μM CQ was performed, the fluorescence intensity decreased compared to the control, and this was recovered by the treatment with the alloferon D-form peptides and zinc (FIG. 3B). […]

TNF-α = details: 0.5, 2, 8, and 16 mg/kg intraperitoneally, after 1 hour
Procedure: (§3) Specifically, the alloferon D-form peptides were intraperitoneally injected at 0.5, 2, 8, and 16 mg/kg, and after 1 hour, blood was collected from the retro-orbital plexus of the mice. The collected blood was centrifuged at 2,000 g at 4° C. for 20 minutes using a centrifuge, and then only the supernatant was taken to obtain plasma. Thereafter, an experiment was performed using TNF-α and IL-6 Elisa kit (RayBiotech, USA). Specifically, 100 μL of plasma sample was put into a 96-well microplate coated with each of anti-TNF-α and anti-IL-6 antibodies, and then left while shaking at room temperature for 2 hours and 30 minutes. Thereafter, the sample was discarded, washed 4 times with a wash buffer provided from the kit, and then 100 μL of the biotin-binding secondary antibodies was reacted for 1 hour. Then, it was washed 4 times with a washing buffer, 100 μL of streptavidin solution was added thereto, left while shaking at room temperature for 45 minutes, and washed again 4 times with a washing buffer. After 100 μL of TMB One-step substrate was added thereto and left for 30 minutes, 50 μL of a reaction termination solution was added thereto, and then 450 nm absorbance was measured by a spectrophotometer.

[5] = Body weight change during intraperitoneal administration; format: in vivo, mice; details: 16 mg/kg intraperitoneal, 14 weeks (FIG. 10C)
IL-6 = assay: Plasma cytokine ELISA after intraperitoneal injection; format: in vivo, mice; details: 0.5, 2, 8, and 16 mg/kg intraperitoneally, after 1 hour
Procedure: as §3

[6] = In vitro plasma stability analysis (LC / mass spectrometry)
Procedure: In vitro plasma stability analysis was performed in order to compare the stability of L-form peptides and D-form peptides of the alloferon in the plasma of mice. […] The 10 μM alloferon L-form and D-form peptides were put into 100 μL of plasma, respectively, and then allowed to stand at 37° C. for 0, 5, 10, 30, 60, and 90 minutes. Thereafter, 500 μL of cold methanol was added thereto to precipitate proteins, and the proteins were lyophilized, followed by liquid chromatography and protein mass spectrometry.

[7] = 100 nM bafilomycin A1 alone, 12 hours
[8] = treatment alone, without Baf-A1

Compound: CO/C1=C\C(C)=C\[C@@H](C)[C@@H](O)[C@@H](C)C/C(C)=C/C=C/[C@H](OC)[C@@H]([C@@H](C)[C@@H](O)[C@H](C)[C@@]2(O)C[C@@H](O)[C@H](C)[C@@H](C(C)C)O2)OC1=O [Baf-A1, bafilomycin A-1]
- Huntington protein aggregates [1, 7]: increased
- β-amyloid protein aggregates [2, 7]: increased

Compound: CN(C)CCCN1c2ccccc2Sc2ccc(Cl)cc21 [CP, chloropromazine]
- effect of the alloferon D-form peptides on autophagic flux (cortical nerve cells [3]): not changed

Compound: CCN(CC)CCCC(C)Nc1ccnc2cc(Cl)ccc12 (centres unmarked) [CQ, chloroquine]
- number and size of LC3 puncta (H4 cell line (GL-H4)): significantly increased
- lysotracker fluorescence intensity compared to the control (cortical nerve cells [4]; 50 μM CQ alone, 4 hours): decreased

Compound: CC(C)[C@@H](NC(=O)CNC(=O)[C@H](N)Cc1c[nH]cn1)C(=O)N[C@H](CO)C(=O)NCC(=O)N[C@H](Cc1c[nH]cn1)C(=O)NCC(=O)N[C@H](CCC(N)=O)C(=O)N[C@H](Cc1c[nH]cn1)C(=O)NCC(=O)N[C@@H](C(=O)N[C@H](Cc1c[nH]cn1)C(=O)NCC(=O)O)C(C)C [alloferon D-form peptides] (H-[dH]G[dV][dS]G[dH]G[dQ][dH]G[dV][dH]G-OH; N-terminus and C-terminus assumed)
- changes in TNF-α in plasma compared to the control (TNF-α): not observed
- amount of changes in the body weights of mice [5]: did not change
- changes in IL-6 in plasma compared to the control (IL-6): not observed

Compound: [Zn] [zinc]
- lysotracker fluorescence intensity decreased by 50 μM CQ (cortical nerve cells [4]; 20 μM peptide or 25 μM zinc + 50 μM chloroquine, 4 hours (FIG. 3B)): recovered
- Huntington protein aggregates increased by Baf-A1 ([1]; 100 nM bafilomycin A1 + 20 μM peptide or 25 μM zinc, 12 hours (FIG. 8)): decreased
- Huntington protein aggregates compared to the control [1, 8]: no change
- β-amyloid protein aggregates increased by Baf-A1 (fluorescence) ([2]; 100 nM bafilomycin A1 + 2 or 20 μM peptide or 25 μM zinc, 12 hours (FIG. 7A)): decreased
- β-amyloid aggregates increased by Baf-A1 (western blot) ([2]; 100 nM bafilomycin A1 + peptide or 25 μM zinc, 12 hours (FIG. 7B)): decreased
- β-amyloid protein aggregates compared to the control group [2, 8]: no change

Compound: HGVSGHGQHGVHG [alloferon L-form peptides]
- degradation / stability in plasma ([6]; mouse plasma, 10 μM, 37° C., 0-90 minutes): degraded from an early time in plasma
- half-life ([6]; mouse, plasma): 51.8 min

Compound: methyl-beta-cyclodextrin [MβCD]
- effect of the alloferon D-form peptides on autophagic flux (cortical nerve cells [3]): not changed
